Assay results taken from patent publication US20260085034A1, “N-(BENZHYDRYL)CYCLOALKYLCARBOXAMIDE DERIVATIVES AS INHIBITORS OF GLYCOGEN SYNTHASE 1 (GYS1) AND METHODS OF USE THEREOF” (Maze Therapeutics, Inc., priority 2022, published 2026).

Molecular target: T1, recombinant hGYS2/GN1 protein (Homo sapiens, UniProt P54840)
T1 sequence (P54840 1-703): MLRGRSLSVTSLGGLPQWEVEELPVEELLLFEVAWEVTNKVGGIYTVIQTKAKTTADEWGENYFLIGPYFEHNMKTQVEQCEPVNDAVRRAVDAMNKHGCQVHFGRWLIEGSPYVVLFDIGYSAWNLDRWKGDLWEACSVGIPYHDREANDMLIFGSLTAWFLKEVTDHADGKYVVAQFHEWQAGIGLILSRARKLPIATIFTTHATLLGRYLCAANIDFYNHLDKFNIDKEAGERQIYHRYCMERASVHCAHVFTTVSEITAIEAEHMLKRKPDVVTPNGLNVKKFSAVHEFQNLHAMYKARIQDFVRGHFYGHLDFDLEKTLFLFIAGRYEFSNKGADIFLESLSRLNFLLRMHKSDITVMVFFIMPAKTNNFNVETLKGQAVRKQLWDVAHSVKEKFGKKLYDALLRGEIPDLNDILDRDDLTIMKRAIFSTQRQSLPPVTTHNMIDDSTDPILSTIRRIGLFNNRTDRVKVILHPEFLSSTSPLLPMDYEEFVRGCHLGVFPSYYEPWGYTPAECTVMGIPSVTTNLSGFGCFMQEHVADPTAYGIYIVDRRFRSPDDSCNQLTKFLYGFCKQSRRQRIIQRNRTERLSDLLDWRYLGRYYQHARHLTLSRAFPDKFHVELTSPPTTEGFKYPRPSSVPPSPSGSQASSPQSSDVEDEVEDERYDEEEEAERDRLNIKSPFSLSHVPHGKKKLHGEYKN
T1 sequence (P46976 1-350 partner): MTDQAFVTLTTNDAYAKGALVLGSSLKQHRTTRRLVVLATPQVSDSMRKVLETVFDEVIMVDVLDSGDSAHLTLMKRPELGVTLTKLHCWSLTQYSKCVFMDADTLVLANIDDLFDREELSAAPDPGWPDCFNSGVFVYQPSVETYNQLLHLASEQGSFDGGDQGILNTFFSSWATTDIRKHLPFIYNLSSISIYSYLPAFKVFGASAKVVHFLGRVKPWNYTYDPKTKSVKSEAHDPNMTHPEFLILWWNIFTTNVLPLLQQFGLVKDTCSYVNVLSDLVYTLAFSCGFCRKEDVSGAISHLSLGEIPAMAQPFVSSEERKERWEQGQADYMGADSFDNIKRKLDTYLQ
Assay: GYS2 coupled enzyme assay (PK/LDH)
Assay type: biochemical
Settings: geometric mean of at least 2 assay runs; NADH absorbance at 340 nm
Method in brief: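 Reaction in 50 mM Tris pH 7.5, 2 mM MgCl2, 100 mM KCl, 0.02% BSA, 1 mM TCEP, 2.5% DMSO, with 0.2% glycogen. Substrate buffer held 200 nM hGYS2/GN1, 2 mM each UDP-glucose, G6P and PEP, 0.6 mM NADH and PK/LDH, before 1:1 mixing. A340 slope over 10 min was control-normalized and Hill-fitted; IC50 = geometric mean of ≥2 runs, duplicates per run.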

For `CC(C)c1ccc([C@@H](NC(=O)[C@H]2C[C@@H]2F)c2ccn[nH]2)cc1F` (single isomer, unassigned) [compound 11], the IC50 was > 100 µM.
